Source: patent publication US9815796B2 (Merck Sharp & Dohme Corp., priority 2013, dated 2017)
Where two headings read alike, the source gives them in different places.

Biological target: Rhesus PDE2A3 (Macaca mulatta, UniProt B3VTJ2)
Assay: PDE2 fluorescence polarization (IMAP FP) inhibition assay, rhesus enzyme
Format: biochemical, rhesus macaque
Procedure: The activity of the compounds in accordance with the present invention as PDE2 inhibitors may be readily determined using a fluorescence polarization (FP) methodology (Huang, W., et al., J. Biomol Screen, 2002, 7: 215).
In a typical experiment the PDE2 inhibitory activity of the compounds of the present invention was determined in accordance with the following experimental method. Rhesus PDE2A3 was amplified from rhesus macaque brain cDNA (Biochain Institute, Hayward, Calif.) using primers based on human PDE2A sequence (accession NM_002599.3) where the forward primer containing a Kozak consensus was 5′-[…]-3′ and the reverse primer was 5′-[…]-3′. Amplification with Easy-A High-Fidelity PCR cloning enzyme (Stratagene, La Jolla, Calif.) was 95° C. for 2 minutes followed by thirty three cycles of 95° C. for 40 seconds, 52° C. for 30 seconds, and 72° C. for 2 minutes 48 seconds. Final extension was 72° C. for 7 minutes. The PCR product was TA cloned into pcDNA3.3-TOPO (Invitrogen, Carlsbad, Calif.) according to standard protocol. A consensus sequence was developed from multiple clones and then deposited into GenBank (EU812167). AD293 cells (Stratagene, La Jolla, Calif.) with 70-80% confluency were transiently transfected with rhesus PDE2A3/pcDNA3.3-TOPO using Lipofectamine 2000 according to manufacturer specifications (Invitrogen, Carlsbad, Calif.). Cells were harvested 48 hours post-transfection and lysed by sonication (setting 3, 10×5 sec pulses) in a buffer containing 20 mM HEPES pH 7.4, 1 mM EDTA and Complete Protease Inhibitor Cocktail Tablets (Roche, Indianapolis, Ind.). Lysate was collected by centrifugation at 75,000×g for 20 minutes at 4° C. and supernatant utilized for evaluation of PDE2 activity. The fluorescence polarization assay for cyclic nucleotide phosphodiesterases was performed using an IMAP® FP kit supplied by Molecular Devices, Sunnyvale, Calif. (product # R8139). […] Assays were performed at room temperature in 384-well microtiter plates with an incubation volume of 20.2 μL. Solutions of test compounds were prepared in DMSO and serially diluted with DMSO to yield 8 μL of each of 10 solutions differing by 3-fold in concentration, at 32 serial dilutions per plate. […] 0% of inhibition is determined by using DMSO (1% final concentrations).
A Labcyte Echo 555 (Labcyte, Sunnyvale, Calif.) is used to dispense 200 nL from each well of the titration plate to the 384 well assay plate. Ten microliters of a solution of enzyme (1/2000 final dilution from aliquots; sufficient to produce 20% substrate conversion) was added to the assay plate. Next 10 uL of a separate solution of the substrate FAM-labeled cAMP (50 nM final concentration product # R7506 from Molecular Devices) and the activator cGMP (1 uM final concentration), prepared in the assay buffer (10 mM Tris HCl, pH 7.2, 10 mM MgCl2, 0.05% NaN3 0.01% Tween-20, and 1 mM DTT) was added to the assay plate and shaken to mix. The reaction is allowed to proceed at room temperature for 60 minutes. A binding solution is then made from the kit components, comprised of 80% Solution A, 20% Solution B and binding reagent at a volume of 1/600 the total binding solution. The enzymatic reaction is stopped by addition of 60 μL of the binding solution to each well of the assay plates and the plates are sealed and shaken for 30 seconds. The plate was incubated at room temperature for at least one hour prior to determining the fluorescence polarization (FP). The parallel and perpendicular fluorescence of each well of the plate was measured using a Tecan Genios Pro plate reader (Tecan, Switzerland) or Perkin Elmer EnVision™ plate reader (Waltham, Mass.). Fluorescence polarization (mP) was calculated from the parallel (S) and perpendicular (P) fluorescence of each sample well and the analogous values for the median control well, containing only substrate (So and Po), using the following equation: Polarization (mP)=1000*(S/So−P/Po)/(S/So+P/Po).

[1] = Rhesus PDE2, Lab A, read-out: Rhesus PDE2 Ki (nM) - Lab A
[2] = Rhesus PDE2, Lab B, read-out: Rhesus PDE2 Ki (nM) - Lab B

Rhesus PDE2A3, sequence (B3VTJ2 1-941): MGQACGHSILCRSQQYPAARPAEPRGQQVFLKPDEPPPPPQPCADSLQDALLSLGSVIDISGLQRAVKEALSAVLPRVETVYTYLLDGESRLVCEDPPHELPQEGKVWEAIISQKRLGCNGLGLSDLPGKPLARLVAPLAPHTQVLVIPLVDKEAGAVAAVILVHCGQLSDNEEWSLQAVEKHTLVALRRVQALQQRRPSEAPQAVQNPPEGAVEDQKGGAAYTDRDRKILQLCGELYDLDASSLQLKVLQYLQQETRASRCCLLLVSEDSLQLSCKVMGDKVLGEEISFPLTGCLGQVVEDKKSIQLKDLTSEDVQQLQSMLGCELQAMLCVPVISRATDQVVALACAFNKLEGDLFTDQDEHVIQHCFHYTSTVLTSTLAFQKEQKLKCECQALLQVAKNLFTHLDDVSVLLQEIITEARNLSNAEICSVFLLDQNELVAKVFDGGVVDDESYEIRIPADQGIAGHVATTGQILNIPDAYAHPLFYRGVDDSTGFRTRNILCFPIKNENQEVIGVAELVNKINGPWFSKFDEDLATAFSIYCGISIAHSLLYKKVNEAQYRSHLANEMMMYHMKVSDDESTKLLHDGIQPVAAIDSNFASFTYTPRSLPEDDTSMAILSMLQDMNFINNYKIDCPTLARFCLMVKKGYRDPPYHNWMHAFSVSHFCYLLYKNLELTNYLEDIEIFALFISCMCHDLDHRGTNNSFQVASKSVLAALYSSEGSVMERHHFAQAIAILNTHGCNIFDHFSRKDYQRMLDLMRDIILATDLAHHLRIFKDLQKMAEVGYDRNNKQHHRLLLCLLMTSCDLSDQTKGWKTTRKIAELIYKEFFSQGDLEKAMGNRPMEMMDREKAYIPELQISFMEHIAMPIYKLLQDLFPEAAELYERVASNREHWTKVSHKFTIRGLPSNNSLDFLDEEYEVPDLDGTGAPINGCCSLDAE

| Compound | Ki [1] [nM] | Ki [2] [nM] |
| --- | --- | --- |
| Cc1nc(C(=O)NC(C)c2ccc(-c3ccccc3)cc2)cc(=O)[nH]1 (single isomer, unassigned) [Example 308, (S)- or (R)-N-(1-biphenyl-4-ylethyl)-2-methyl-6-oxo-1,6-dihydropyrimidine-4-carboxamide] | 2500 |  |
| COc1ccc2cc(C(C)NC(=O)c3cc(=O)[nH]c(C)n3)ccc2c1 (single isomer, unassigned) [Example 314, (S)- or (R)-N-[1-(6-methoxynaphthalen-2-yl)ethyl]-2-methyl-6-oxo-1,6-dihydropyrimidine-4-carboxamide] | 4740 |  |
| Cc1nc(C(=O)NC(c2ccc(SC(F)(F)F)c(F)c2)C2(C)CC2)cc(=O)[nH]1 (single isomer, unassigned) [Example 703, (S)- or (R)-N-((3-fluoro-4-((trifluoromethyl)thio)phenyl)(1-methylcyclopropyl)methyl)-2-methyl-6-oxo-1,6-dihydropyrimidine-4-carboxamide] |  | > 2970 |
| CC1(C(NC(=O)c2cc(=O)[nH]c(C3CC3)n2)c2ccc(SC(F)(F)F)c(F)c2)CC1 (single isomer, unassigned) [Example 705, (S)- or (R)-2-cyclopropyl-N-((3-fluoro-4-((trifluoromethyl)thio)phenyl)(1-methylcyclopropyl)methyl)-6-oxo-1,6-dihydropyrimidine-4-carboxamide] |  | 1070 |
| CC1(C(NC(=O)c2cc(=O)[nH]c(-c3ccccc3)n2)c2ccc(SC(F)(F)F)c(F)c2)CC1 (single isomer, unassigned) [Example 706, (S)- or (R)-N-((3-fluoro-4-((trifluoromethyl)thio)phenyl)(1-methylcyclopropyl)methyl)-6-oxo-2-phenyl-1,6-dihydropyrimidine-4-carboxamide] |  | > 2970 |
| CC1(C(NC(=O)c2cc(=O)[nH]c(-c3ncccn3)n2)c2ccc(SC(F)(F)F)c(F)c2)CC1 (single isomer, unassigned) [Example 708, (S)- or (R)-N-((3-fluoro-4-((trifluoromethyl)thio)phenyl)(1-methylcyclopropyl)methyl)-6-oxo-1,6-dihydro-[2,2′-bipyrimidine-4-carboxamide] |  | ~2120 |
| Cc1nc(C(=O)NC(c2ccc(C3(C)CC3)c(F)c2)C(C)(C)C)cc(=O)[nH]1 (single isomer, unassigned) [Example 710, (S)- or (R)-N-(1-(3-fluoro-4-(1-methylcyclopropyl)phenyl)-2,2-dimethylpropyl)-2-methyl-6-oxo-1,6-dihydropyrimidine-4-carboxamide] |  | > 2970 |
| COc1ccc(Cc2nc(C(=O)NC3(C)CC3)cc(=O)[nH]2)cc1OC [Example 5, 2-(3,4-dimethoxybenzyl)-N-(1-methylcyclopropyl)-6-oxo-1,6-dihydropyrimidine-4-carboxamide] | 1150 |  |
| C[C@@H](NC(=O)c1cc(=O)[nH]c(C(C)(C)n2cccn2)n1)c1ccc(C(F)(F)F)cc1 [Example 7, 2-[1-methyl-1-(1H-pyrazol-1-yl)ethyl]-6-oxo-N-{(1R)-1-[4-(trifluoromethyl)phenyl]ethyl}-1,6-dihydropyrimidine-4-carboxamide] | 2780 |  |
| COc1cc(CN(C)C(=O)c2cc(=O)[nH]c(C)n2)cc(OC)c1OC [Example 14, N,2-dimethyl-6-oxo-N-(3,4,5-trimethoxybenzyl)-1,6-dihydropyrimidine-4-carboxamide] | 1860 |  |
| Cc1nc(C(=O)NCc2ccc(C(F)(F)F)cc2C)cc(=O)[nH]1 [Example 23, 2-methyl-N-[2-methyl-4-(trifluoromethyl)benzyl]-6-oxo-1,6-dihydropyrimidine-4-carboxamide] | 3920 |  |
| Cc1nc(C(=O)NCc2ccc(C(F)(F)F)cc2Cl)cc(=O)[nH]1 [Example 24, N-[2-chloro-4-(trifluoromethyl)benzyl]-2-methyl-6-oxo-1,6-dihydropyrimidine-4-carboxamide] | 3630 |  |
| COc1cc(C(C)NC(=O)c2cc(=O)[nH]c(C)n2)ccc1C(F)(F)F (stereo not drawn) [Example 27, N-{1-[3-methoxy-4-(trifluoromethyl)phenyl]ethyl}-2-methyl-6-oxo-1,6-dihydropyrimidine-4-carboxamide] | 1160 |  |
| Cc1nc(C(=O)N[C@H](C)c2ccc(C(F)(F)F)c3ccccc23)cc(=O)[nH]1 [Example 28, 2-methyl-6-oxo-N-{(1R)-1-[4-(trifluoromethyl)naphthalen-1-yl]ethyl}-1,6-dihydropyrimidine-4-carboxamide] | 3490 |  |
| Cc1nc(C(=O)NC(c2ccccc2)c2ccc(C(F)(F)F)cc2)cc(=O)[nH]1 (stereo not drawn) [Example 34, 2-methyl-6-oxo-N-{phenyl[4-(trifluoromethyl)phenyl]methyl}-1,6-dihydropyrimidine-4-carboxamide] | 1420 |  |

Second part, the compound after the results:

| Ki [1] [nM] | Ki [2] [nM] | Compound |
| --- | --- | --- |
| 2380 |  | Cc1nc(C(=O)NC(C)c2ccc(C(C)C)cc2)cc(=O)[nH]1 (single isomer, unassigned) [Example 306, (S)- or (R)-2-methyl-N-{1-[4-(1-methylethyl)phenyl]ethyl}-6-oxo-1,6-dihydropyrimidine-4-carboxamide] |
| 5650 |  | Cc1nc(C(=O)NC(C)c2ccc(C(C)(C)C)cc2)cc(=O)[nH]1 (single isomer, unassigned) [Example 310, (S)- or (R)-N-[1-(4-tert-butylphenyl)ethyl]-2-methyl-6-oxo-1,6-dihydropyrimidine-4-carboxamide] |
| 9120 |  | Cc1nc(C(=O)NC(CO)c2ccc(C(F)(F)F)cc2)cc(=O)[nH]1 (single isomer, unassigned) [Example 311, (S)- or (R)-N-{2-hydroxy-1-[4-(trifluoromethyl)phenyl]ethyl}-2-methyl-6-oxo-1,6-dihydropyrimidine-4-carboxamide] |
|  | ~1220 | Cc1nc(C(=O)NC(C)(c2ccc(S(F)(F)(F)(F)F)cc2)C(C)C)cc(=O)[nH]1 (single isomer, unassigned) [Example 662, (S)- or (R)-N-{1,2-dimethyl-1-[4-(pentafluoro-λ^6-sulfanyl)phenyl]propyl}-2-methyl-6-oxo-1,6-dihydropyrimidine-4-carboxamide] |
|  | 473 | Cc1nc(C(=O)NC(C)c2ccc(C(C)(C)C(F)(F)F)cc2)cc(=O)[nH]1 (single isomer, unassigned) [Example 695, (R)- or (S)-2-methyl-6-oxo-N-(1-(4-(1,1,1-trifluoro-2-methylpropan-2-yl)phenyl)ethyl)-1,6-dihydropyrimidine-4-carboxamide] |
|  | 441 | Cc1nc(C(=O)NC(c2ccc(SC(F)(F)F)cc2)C(C)C)cc(=O)[nH]1 (stereo in doubt) [Example 615, 2-methyl-N-[(1S)-2-methyl-1-{4-[(trifluoromethyl)sulfanyl]phenyl}propyl]-6-oxo-1,6-dihydropyrimidine-4-carboxamide] |
| 102 |  | CCC(NC(=O)c1cc(=O)[nH]c(C)n1)c1ccc(C(C)(C)C)cc1 (stereo not drawn) [Example 12, N-[1-(4-tert-butylphenyl)propyl]-2-methyl-6-oxo-1,6-dihydropyrimidine-4-carboxamide] |
| 4590 |  | Cc1nc(C(=O)N[C@@H](C)c2ccc(OC(F)F)cc2)cc(=O)[nH]1 [Example 56, (S)-N-(1-(4-(difluoromethoxy)phenyl)ethyl)-2-methyl-6-oxo-1,6-dihydropyrimidine-4-carboxamide] |
| ~39300 |  | Cc1nc(C(=O)N[C@@H](c2ccc(C(F)(F)F)cc2)[C@H](C)O)cc(=O)[nH]1 [Example 64, N-((1S,2S)-2-hydroxy-1-(4-(trifluoromethyl)phenyl)propyl)-2-methyl-6-oxo-1,6-dihydropyrimidine-4-carboxamide] |
